The source of these data is patent publication US20020193425A1, “Cancer chemopreventative compounds and compositions and methods of treating cancers” (priority 2001, published 2002).

One data set has as its system c-Myc oncoprotein, HL-60. Nature of the data set: c-Myc oncoprotein expression, western blotting. Type of data set: cell-based, human. How it is done:
The expression of c-Myc was assessed by immunoblots as previously described. In brief, cells (10^6) were treated and harvested at various time intervals, and whole-cell pellets were lysed with detergent lysis buffer (1 ml/10^7 cells, 50 mM Tris-HCl buffer, pH 8.0, 150 mM NaCl, 1 mM DTT, 0.5 mM EDTA, 1% Nonidet® P40, 0.5% sodium deoxycholate, 0.1% sodium dodecylsulfate, 100 μg/ml phenylmethylsulfonyl fluoride, 1 μg/ml aprotinin, 2 μg/ml leupeptin and 100 μM sodium vanadate) to obtain protein lysates. Protein concentrations were quantified using a bicinchoninic acid kit. Since c-Myc is a labile protein, cell lysates were not frozen, but stored at 4° C., until all protein lysates were prepared for a particular cell line, and then western blots were performed immediately. Total protein ([…]) was separated by 10% SDS-PAGE, electroblotted to PVDF membranes, and blocked overnight with 5% nonfat dry milk. The membrane was incubated with a solution of the primary antibody (2.5 μg/ml), prepared in 1% blocking solution, for 2 h at room temperature, washed three-times for 15 min with PBS-T (PBS with 0.1%, v/v, Tween 20), and incubated with a 1:2500 dilution of horseradish peroxidase-conjugated secondary antibody for 30 min at 37° C. Blots were again washed three-times for 10 min each in PBS-T and developed by enhanced chemiluminescence (Amersham). Membranes were exposed to Kodak Biomax film and the resulting film was analyzed using Kodak 1D Image Analysis software. Membranes were then stripped and reprobed for the quantification of bactin.
Cells were treated with solvent (0.1% v/v DMSO, control), brusatol (25 ng/ml) or bruceantin (10 ng/ml) for 4 or 24 h, then analyzed by western blotting. Membranes were probed for c-Myc, and then stripped and probed for β-actin as an internal control.
Cells were treated with brusatol (25 ng/ml) or bruceantin (10 ng/ml) for 4 or 24 h, and then analyzed for c-Myc and β-actin expression using western blotting techniques. Results are expressed as percentage of c-Myc oncoprotein of control (0.1%, v/v, DMSO treated cells) values. Results were normalized relative to β-actin.

The nature of data set [1]: HL-60 cytotoxicity of quassinoids, trypan blue exclusion. The data set is classed as cell-based, human. Particulars: human. As for the experimental part:
(§1) Induction of differentiation was determined by the ability of treated cells to produce superoxide anions (nitroblue tetrazolium (NBT)-reduction), a functional marker of mature macrophages or granulocytes. Proliferation capacity is equivalent to cell growth and was measured by incorporation of [3H]thymidine into DNA over a period of 18 h, and cytotoxic activity was evaluated by the loss of membrane integrity as shown by trypan blue exclusion. […] Although members of the brusatol and glaucarubolone series were active, when comparing members of both series that varied only in the positioning of the epoxymethano bridge, great differences were noted, as shown with yadianzolide C (5) and glaucarubolone (24), and analogues 4 (brusatol series) and 32 (glaucarubolone series).
(§2) HL-60 (human promyelocytic) cells were tested using a 4-day incubation protocol. In brief, cells in log phase (approximately 10^6 cells/mL) were diluted to […] and preincubated overnight (18 h) in 24-well plates to allow cell-growth recovery. Then, samples dissolved in DMSO were added, keeping the final DMSO concentration at 0.1% (v/v). Control cultures were treated with the same concentration of DMSO. After 4 days of incubation, the cells were analyzed to determine the percentage of cells undergoing maturation as determined by NBT reduction. Concomitantly, the effect on viability and proliferation of HL-60 cells was determined. In each experiment, 1α, 25-dihydroxyvitamin D3 (EC50=0.01 μM) and brusatol (EC50=0.07 μM) were used as reference controls. EC50 and IC50 values were calculated using 5-7 test concentrations (in duplicate), and consistent results were obtained, indicating the data reported for the related quassinoids are reliable.
(2) Cytotoxicity. Since loss of membrane integrity is an early feature of necrotic cells and a late feature of apoptotic cells, trypan blue, a […] blue dye, was used to stain cells with compromised plasma membranes, while leaving intact cells unstained. Cells […] of trypan blue (0.2% w/v in PBS), incubated for at least 5 min at room temperature, and counted using a hematocytometer. Viability percentages were calculated with duplicate samples.

Data set [2] has as its system DMBA-induced preneoplastic lesion formation in mouse mammary organ culture. Nature of the data set: Inhibition of DMBA-induced preneoplastic lesion formation in mouse mammary organ culture (MMOC). The conditions noted are these: Mus musculus; quassinoid (2 μM); in comparison with a DMBA control. The data set is classed as cell-based. As for the experimental part: The identification of potential inhibitors of DMBA-induced preneoplastic lesion formation in mammary organ culture has been described previously. Briefly, four-week old BALB/c female mice (Charles River) were pretreated for nine days with 1 μg estradiol and 1 mg progesterone. The thoracic pair of mammary glands was dissected on silk and incubated with growth-promoting hormones in the presence of test compounds (2 μM) for 10 days. DMBA ([…]) was included in the medium (containing […]) for 24 hours on the third day of culture to induce preneoplastic mammary lesions. Following 10 days of growth promoting phase, all hormones except insulin were withdrawn and the glands were allowed to regress to lobuloalveolar structures during a 14-day incubation period. Glands then were fixed in 10% buffered formalin and stained with alum carmine. Incidence of lesion formation (percentage of glands per group with mammary lesions) was recorded, and percent inhibition was calculated by comparison with the DMBA control group that was not treated with test sample. Active samples induce 60% inhibition, based on historical controls.

The test system of data set [3] is HL-60 (human promyelocytic) cells. Nature of the data set: HL-60 cell differentiation of quassinoids, NBT reduction. The data set is classed as cell-based. The conditions noted are these: Homo sapiens, HL-60, 96 h, read-out: induction of differentiation (EC50, μM). As for the experimental part:
as §1, §2
(1) Nitroblue Tetrazolium (NBT) Reduction. Evaluation of NBT reduction was used to assess the ability of sample-treated HL-60 cells to produce superoxide when challenged with 12-O-tetradecanoylphorbol 13-acetate (TPA). A 1:1 v/v) mixture of a cell suspension (10^6 cells) and TPA/NBT solution (2 mg/mL NBT and 1 μg/mL TPA in phosphate buffered solution) was incubated for 1 h at 37° C. Positive cells reduce NBT yielding intracellular black-blue formazan deposits, which were quantified by microscopic examination of >200 cells. Results were expressed as a percentage of positive cells.

Each structure is given as a SMILES string. Read-outs that look alike come from different tables or passages of the source.

Take `COC(=O)[C@@]12OC[C@]34[C@H]([C@@H](O)[C@@H]1O)[C@@]1(C)CC(=O)C(O)=C(C)[C@@H]1C[C@H]3OC(=O)[C@H](OC(=O)C=C(C)C)[C@@H]24` [compound 1, brusatol]: the “decrease of c-Myc protein levels” value with c-Myc oncoprotein, HL-60 (4 h treatment) stood at 100%. For the same molecule, the “c-Myc oncoprotein, percentage of control” value in the data set on c-Myc oncoprotein, HL-60 (Brusatol (25 ng/ml), 4 h) amounted to 0%; in the data set on c-Myc oncoprotein, HL-60 (Brusatol (25 ng/ml), 24 h) it was 17%. Also, the IC50 at 4 days in data set [1] (HL-60 cells, HL-60, 4-day incubation, trypan blue exclusion, read-out: cytotoxicity (IC50)) turned out to be 170 ± 1 nM. The molecule further yielded an inhibition at 2 µM in data set [2] of 70%. The EC50 in data set [3] stood at 0.07 µM.
`COC(=O)[C@@]12OC[C@]34[C@H]([C@@H](O)[C@@H]1O)[C@@]1(C)CC(=O)C(O)=C(C)[C@@H]1C[C@H]3OC(=O)[C@H](OC(=O)/C=C(\C)C(C)C)[C@@H]24` [compound 2, bruceantin]: the “c-Myc oncoprotein, percentage of control” value is listed as 3% in the data set on c-Myc oncoprotein, HL-60 (Bruceantin (10 ng/ml), 4 h) and 57% with c-Myc oncoprotein, HL-60 (Bruceantin (10 ng/ml), 24 h). The same molecule showed an IC50 at 4 days in data set [1] of 40 ± 3 nM. Besides, 2 µM produced 70% inhibition in data set [2]. The EC50 in data set [3] is 0.02 ± 0.002 µM.
